Among the data in ChEMBL document CHEMBL1146960, “Synthesis and anticancer activity of thiosemicarbazones” (Bioorg Med Chem Lett, 2006) are inhibition and IC50 values, retold here.

Molecules are shown by their SMILES.

Test [1] relates to SGC-7901. Kind of test: Antitumor activity against SGC7901 cell line at 0.1 umol/L by SRB method. In kind it is functional. The note with it: Homo sapiens.
Test [2] relates to P388. Kind of test: Antitumor activity against P388 cell line at 1 umol/L by MTT method. In kind it is functional. The note with it: Mus musculus.
Test [3] relates to SGC-7901. Kind of test: Antitumor activity against SGC7901 cell line at 10 umol/L by SRB method. Type of test: functional. The conditions noted are these: Homo sapiens.
Test [4] relates to SGC-7901. Kind of test: Antitumor activity against SGC7901 cell line at 12.5 nmol/L by SRB method. The conditions noted are these: Homo sapiens. Type of test: functional.
Test [5] deals with A549. Kind of test: Antitumor activity against A549 cell line at 1 umol/L by SRB method. Type of test: functional. The note with it: Homo sapiens.
Test [6] concerns A549. Kind of test: Antitumor activity against A549 cell line at 10 umol/L by SRB method. In kind it is functional. The note with it: Homo sapiens.
The subject of test [7] is SGC-7901. Kind of test: Antitumor activity against SGC7901 cell line at 25 nmol/L by SRB method. In kind it is functional. The note with it: Homo sapiens.
In test [8] the test system is SGC-7901. Kind of test: Antitumor activity against SGC7901 cell line at 1 umol/L by SRB method. The conditions noted are these: Homo sapiens. Type of test: functional.
Test [9] concerns P388. Kind of test: Antitumor activity against P388 cell line at 10 umol/L by MTT method. Type of test: functional. The note with it: Mus musculus.
The test system of test [10] is SGC-7901. Kind of test: Antitumor activity against SGC7901 cell line at 6.25 nmol/L by SRB method. The note with it: Homo sapiens. In kind it is functional.
Test [11] concerns A549. Kind of test: Antitumor activity against A549 cell line at 0.1 umol/L by SRB method. The note with it: Homo sapiens. Type of test: functional.
The subject of test [12] is P388. Kind of test: Antitumor activity against P388 cell line at 0.1 umol/L by MTT method. In kind it is functional. The conditions noted are these: Mus musculus.
The test system of test [13] is SGC-7901. Kind of test: Antitumor activity against SGC7901 cell line by SRB method. Type of test: functional, cell-based. The conditions noted are these: Homo sapiens.
The subject of test [14] is SGC-7901. Kind of test: Antitumor activity against SGC7901 cell line at 50 nmol/L by SRB method. Type of test: functional. The note with it: Homo sapiens.
For test [15], the system named is SGC-7901. Kind of test: Antitumor activity against SGC7901 cell line at 0.01 umol/L by SRB method. In kind it is functional. The note with it: Homo sapiens.
The test system of test [16] is P388. Kind of test: Antitumor activity against P388 cell line at 0.01 umol/L by MTT method. In kind it is functional. The conditions noted are these: Mus musculus.
Test [17] concerns P388. Kind of test: Antitumor activity against P388 cell line at 100 umol/L by MTT method. Type of test: functional. The note with it: Mus musculus.
Test [18] relates to SGC-7901. Kind of test: Antitumor activity against SGC7901 cell line at 100 umol/L by SRB method. In kind it is functional. The conditions noted are these: Homo sapiens.

Take `C/C(=N/N=C(\S)N1CCN(c2ccccn2)CC1)c1ncccn1`: the inhibition at 0.1 µM in [1] is 81.7%; in test [11], 12.6%; in [12] it was 28.3%. Further, the inhibition at 1 µM in [2] is 89.4%; in test [5], 18.5%; in test [8] it was 90%. The inhibition at 10 µM was determined as 90% in test [3], 79.3% in test [6] and 96.5% in test [9]. The molecule also returned an inhibition at 0.0125 µM in test [4] of 31.7%. This molecule also gave an inhibition at 0.025 µM in test [7] of 48.4%. Besides, in test [10], the inhibition at 0.00625 µM was 18.4%. Also, the half-maximal inhibitory concentration (IC50) in [13] came out at 32 nM. The same molecule returned an inhibition at 0.05 µM in [14] of 60.1%.

For the molecule `C/C(=N/N=C(\S)N1CCN(c2ccccn2)CC1)c1cccs1`, the inhibition at 0.01 µM in [15] stood at 12.8%; in test [16] it was 0%. For the same molecule, the inhibition at 0.1 µM is 1.6% in test [1] and 0% in test [12]. For the same molecule, the inhibition at 1 µM in [2] was found to be 15%; in [8] it was 7.2%. Also, the inhibition at 10 µM in [3] worked out at 94.9%; in [9], 0%. The inhibition at 100 µM in test [17] was 100%; in test [18] it was 96.4%.
